Consider 19 molecules from patent US9376442B2, “Methylpyrrolopyrimidinecarboxamides” (Takeda GmbH, priority 2009, dated 2016).

The assay concerns the target T1, PDE5A1 (Homo sapiens, UniProt O76074).
T1 construct: from tissue; host or cells: human platelets from fresh donor blood (10,000 x g supernatant of sonicated lysate)
Kind of assay: Inhibition of type 5 phosphodiesterase (PDE5) activity, modified SPA test with human platelet lysate. Format: biochemical. The conditions noted are these: 0.5 μM cGMP, read-out: PDE5A1 inhibitory values [measured as −log IC50 (mol/l)] (converted). The protocol:
Method for Measuring Inhibition of the Type 5 Phosphodiesterase (PDE5) Activity:
As a source for human PDE5, platelets are used. For that purpose, 150 ml fresh blood from human donors anticoagulated with citrate [final concentration 0.3% (w/v)] is centrifuged at 200 g for 10 min to obtain the so-called platelet-rich-plasma (PRP) as a supernatant. 1/10 volume of ACD solution (85 mM Na3-citrate, 111 mM D-glucose, 71 mM citric acid, pH 4.4) is added to 9/10 volume of PRP. After centrifugation (1,400 g, 10 min) the cell pellet is resuspended in 3 ml homogenization buffer (NaCl 140 mM, KCl 3.8 mM, EGTA (ethylene glycol tetraacetic acid) 1 mM, MgCl2 1 mM, Tris-HCl 20 mM, beta-mercaptoethanol 1 mM, pH 8.2) plus protease-inhibitor mix giving rise to the final concentrations of 0.5 mM Pefablock (Roche), 10 μM Leupeptin, 5 μM Trypsininhibitor, 2 mM Benzamidin and 10 μM Pepstatin A. The suspension is sonified and thereafter centrifuged for 15 min at 10,000 g. The resulting supernatant (platelet lysate) is used for enzymatic testings.
PDE5A1 activity is inhibited by the compounds of the present subject matter in a modified SPA (scintillation proximity assay) test, supplied by Amersham Biosciences (see procedural instructions “phosphodiesterase [3H]cAMP SPA enzyme assay, code TRKQ 7090”), carried out in 96-well microtitre plates (MTP's). The test volume is 100 μl and contains 20 mM Tris buffer (pH 7.4), 0.1 mg of BSA (bovine serum albumin)/ml, 5 mM Mg^2+, 1 μM motapizone, 10 nM PDE2 inhibitor 2-(3,4-dimethoxybenzyl)-7-[(1R,2R)-2-hydroxy-1-(2-phenylethyl)propyl]-5-methylimidazo[5,1-f][1,2,4]triazin-4(3H)-one, 0.5 μM cGMP (cyclic guanosine monophosphate) (including about 50,000 cpm of [3H]cGMP as a tracer), 1 μl of the respective compound dilution in dimethylsulfoxide (DMSO) and sufficient PDE5-containing platelet lysat (10,000×g supernatant, see above) to ensure that 10-20 wt % of the cGMP is converted under the said experimental conditions. […] After a preincubation of 5 min at 37° C., the reaction is started by adding the substrate (cGMP) and the assay is incubated for a further 15 min; after that, it is stopped by adding SPA beads (50 μl). In accordance with the manufacturer's instructions, the SPA beads had previously been resuspended in water, but are then diluted 1:3 (v/v) in water; the diluted solution also contains 3 mM […] (IBMX) to ensure a complete PDE activity stop. After the beads have been sedimented (>30 min), the MTP's are analyzed in commercially available luminescence detection devices. The corresponding IC50 values of the compounds for the inhibition of PDE activity are determined from the concentration-effect curves by means of non-linear regression.

Some results are limits rather than exact numbers.

Regarding `COc1cc(-c2ncnc3c(C(=O)N[C@@H]4CN(C(C)=O)C[C@H]4O)c(C)[nH]c23)c(OCC2CC2)cc1F` (relative stereo) [Example E183, N-[(3R*,4R*)-1-Acetyl-4-hydroxypyrrolidin-3-yl]-4-[2-(cyclopropylmethoxy)-4-fluoro-5-methoxyphenyl]-6-methyl-5H-pyrrolo[3,2-d]pyrimidine-7-carboxamide], the IC50 is below 1 nM.

As for `CCC(=O)N1C[C@@H](O)[C@H](NC(=O)c2c(C)[nH]c3c(-c4cc(OC)c(F)cc4OCC4CC4)ncnc23)C1` (relative stereo) [Example E184, 4-[2-(Cyclopropylmethoxy)-4-fluoro-5-methoxyphenyl]-N-[(3R*,4R*)-4-hydroxy-1-propionylpyrrolidin-3-yl]-6-methyl-5H-pyrrolo[3,2-d]pyrimidine-7-carboxamide], the IC50 is below 1 nM.

Regarding `COCC(=O)N1C[C@@H](O)[C@H](NC(=O)c2c(C)[nH]c3c(-c4cc(OC)c(F)cc4OCC4CC4)ncnc23)C1` (relative stereo) [Example E185, 4-[2-(Cyclopropylmethoxy)-4-fluoro-5-methoxyphenyl]-N-[(3R*,4R*)-4-hydroxy-1-(methoxyacetyl)pyrrolidin-3-yl]-6-methyl-5H-pyrrolo[3,2-d]pyrimidine-7-carboxamide], the IC50 was below 1 nM.

On to `COc1cc(OCC2CC2)c(-c2ncnc3c(C(=O)N[C@@H]4CN(C(C)=O)C[C@H]4O)c(C)[nH]c23)cc1F` (relative stereo) [Example E189, N-[(3R*,4R*)-1-Acetyl-4-hydroxypyrrolidin-3-yl]-4-[2-(cyclopropylmethoxy)-5-fluoro-4-methoxyphenyl]-6-methyl-5H-pyrrolo[3,2-d]pyrimidine-7-carboxamide], for which the IC50 is below 1 nM.

With `CCC(=O)N1C[C@@H](O)[C@H](NC(=O)c2c(C)[nH]c3c(-c4cc(F)c(OC)cc4OCC4CC4)ncnc23)C1` (relative stereo) [Example E190, 4-[2-(Cyclopropylmethoxy)-5-fluoro-4-methoxyphenyl]-N-[(3R*,4R*)-4-hydroxy-1-propionylpyrrolidin-3-yl]-6-methyl-5H-pyrrolo[3,2-d]pyrimidine-7-carboxamide], the IC50 was below 1 nM.

As for `COCC(=O)N1C[C@@H](O)[C@H](NC(=O)c2c(C)[nH]c3c(-c4cc(F)c(OC)cc4OCC4CC4)ncnc23)C1` (relative stereo) [Example E191, 4-[2-(Cyclopropylmethoxy)-5-fluoro-4-methoxyphenyl]-N-[(3R*,4R*)-4-hydroxy-1-(methoxyacetyl)pyrrolidin-3-yl]-6-methyl-5H-pyrrolo[3,2-d]pyrimidine-7-carboxamide], the IC50 was below 1 nM.

For `COc1ccc(OCC2CC2)c(-c2ncnc3c(C(=O)N[C@@H]4CN(C(C)=O)C[C@H]4O)c(C)[nH]c23)c1` (relative stereo) [Example E192, N-[(3R*,4R*)-1-Acetyl-4-hydroxypyrrolidin-3-yl]-4-[2-(cyclopropylmethoxy)-5-methoxyphenyl]-6-methyl-5H-pyrrolo[3,2-d]pyrimidine-7-carboxamide], the IC50 was 1 to 10 nM.

As to `CCC(=O)N1C[C@@H](O)[C@H](NC(=O)c2c(C)[nH]c3c(-c4cc(OC)ccc4OCC4CC4)ncnc23)C1` (relative stereo) [Example E193, 4-[2-(Cyclopropylmethoxy)-5-methoxyphenyl]-N-[(3R*,4R*)-4-hydroxy-1-propionylpyrrolidin-3-yl]-6-methyl-5H-pyrrolo[3,2-d]pyrimidine-7-carboxamide], the IC50 was 1 to 10 nM.

With `COCC(=O)N1C[C@@H](O)[C@H](NC(=O)c2c(C)[nH]c3c(-c4cc(OC)ccc4OCC4CC4)ncnc23)C1` (relative stereo) [Example E194, 4-[2-(Cyclopropylmethoxy)-5-methoxyphenyl]-N-[(3R*,4R*)-4-hydroxy-1-(methoxyacetyl)pyrrolidin-3-yl]-6-methyl-5H-pyrrolo[3,2-d]pyrimidine-7-carboxamide], the IC50 was 1 to 10 nM.

On to `Cc1[nH]c2c(-c3c(OCC4CC4)ccc4c3OCO4)ncnc2c1C(=O)N[C@@H]1CN(C(=O)CO)C[C@H]1O` (relative stereo) [Example F9, 4-[5-(Cyclopropylmethoxy)-1,3-benzodioxol-4-yl]-N-[(3R*,4R*)-1-glycoloyl-4-hydroxypyrrolidin-3-yl]-6-methyl-5H-pyrrolo[3,2-d]pyrimidine-7-carboxamide], for which the IC50 was below 1 nM.

For the molecule `Cc1[nH]c2c(-c3ccc(F)cc3OCC3CC3)ncnc2c1C(=O)N[C@@H]1CN(C(=O)CO)C[C@H]1O` (relative stereo) [Example F19, 4-[2-(Cyclopropylmethoxy)-4-fluorophenyl]-N-[(3R*,4R*)-4-hydroxy-1-(hydroxyacetyl)pyrrolidin-3-yl]-6-methyl-5H-pyrrolo[3,2-d]pyrimidine-7-carboxamide], the IC50 is 1 to 10 nM.

For the molecule `Cc1[nH]c2c(-c3ccc(F)cc3OCC3CC3)ncnc2c1C(=O)N[C@H]1CCN(C(=O)CO)C[C@@H]1O` (relative stereo) [Example F21, 4-[2-(Cyclopropylmethoxy)-4-fluorophenyl]-N-[(3S*,4S*)-3-hydroxy-1-(hydroxyacetyl)piperidin-4-yl]-6-methyl-5H-pyrrolo[3,2-d]pyrimidine-7-carboxamide], the IC50 was 1 to 10 nM.

For the molecule `Cc1[nH]c2c(-c3cc(F)ccc3OCC3CC3)ncnc2c1C(=O)N[C@@H]1CCN(C(=O)CO)C[C@H]1O` (relative stereo) [Example F30, 4-[2-(Cyclopropylmethoxy)-5-fluorophenyl]-N-[(3R*,4R*)-3-hydroxy-1-(hydroxyacetyl)piperidin-4-yl]-6-methyl-5H-pyrrolo[3,2-d]pyrimidine-7-carboxamide], the IC50 was 1 to 10 nM.

Consider `COc1ccc(-c2ncnc3c(C(=O)N[C@@H]4CN(C(=O)CO)C[C@H]4O)c(C)[nH]c23)c(OCC2CC2)c1` (relative stereo) [Example F39, 4-[2-(Cyclopropylmethoxy)-4-methoxyphenyl]-N-[(3R*,4R*)-1-glycoloyl-4-hydroxypyrrolidin-3-yl]-6-methyl-5H-pyrrolo[3,2-d]pyrimidine-7-carboxamide], for which the IC50 was below 1 nM.

For the molecule `COc1ccc(OCC2CC2)c(-c2ncnc3c(C(=O)N[C@@H]4CCN(C(=O)CO)C[C@H]4O)c(C)[nH]c23)c1` (relative stereo) [Example F49, 4-[2-(Cyclopropylmethoxy)-5-methoxyphenyl]-N-[(3R*,4R*)-3-hydroxy-1-(hydroxyacetyl)piperidin-4-yl]-6-methyl-5H-pyrrolo[3,2-d]pyrimidine-7-carboxamide], the IC50 is below 1 nM.

Turning to `COc1cc(-c2ncnc3c(C(=O)N[C@@H]4CCN(C(=O)CO)C[C@H]4O)c(C)[nH]c23)c(OCC2CC2)cc1F` (relative stereo) [Example F71, 4-[2-(Cyclopropylmethoxy)-4-fluoro-5-methoxyphenyl]-N-[(3R*,4R*)-1-glycoloyl-3-hydroxypiperidin-4-yl]-6-methyl-5H-pyrrolo[3,2-d]pyrimidine-7-carboxamide], the IC50 is below 1 nM.

Consider `COc1cc(-c2ncnc3c(C(=O)N[C@H]4CN(C(=O)CO)CC[C@@H]4O)c(C)[nH]c23)c(OCC2CC2)cc1F` (relative stereo) [Example F73, 4-[2-(Cyclopropylmethoxy)-4-fluoro-5-methoxyphenyl]-N-[(3S*,4S*)-1-glycoloyl-4-hydroxypiperidin-3-yl]-6-methyl-5H-pyrrolo[3,2-d]pyrimidine-7-carboxamide], for which the IC50 is below 1 nM.

As for `Cc1cc(-c2ncnc3c(C(=O)N[C@@H]4CCN(C(=O)CO)C[C@H]4O)c(C)[nH]c23)c(OCC2CC2)cc1F` (relative stereo) [Example F81, 4-[2-(Cyclopropylmethoxy)-4-fluoro-5-methylphenyl]-N-[(3R*,4R*)-3-hydroxy-1-(hydroxyacetyl)piperidin-4-yl]-6-methyl-5H-pyrrolo[3,2-d]pyrimidine-7-carboxamide], the IC50 was below 1 nM.

As to `COc1cc(OCC2CC2)c(-c2ncnc3c(C(=O)N[C@@H]4CCN(C(=O)CO)C[C@H]4O)c(C)[nH]c23)cc1F` (relative stereo) [Example F89, 4-[2-(cyclopropylmethoxy)-5-fluoro-4-methoxyphenyl]-N-[(3R*,4R*)-3-hydroxy-1-(hydroxyacetyl)piperidin-4-yl]-6-methyl-5H-pyrrolo[3,2-d]pyrimidine-7-carboxamide], the IC50 was below 1 nM.
